The text below walks through data of patent US8440591B2, “Pesticidal composition comprising synthetic compound useful as nodulation agent of leguminous plants and a fungicide compound” (Bayer Cropscience AG, priority 2006, dated 2013).

Like-named read-outs stand apart in the source and are kept apart here.

Holding throughout (type): cell-based
One assay relates to Gibberella zeae.
The subject of a further assay is Pyricularia oryzae.
A further assay has as its system Rhizoctonia solani. Kind of assay: In vitro microtest of Rhizoctonia solani. The procedure:
V.10. In vitro Microtest of Rhizoctania solani
(§1) The microtest was performed in liquid medium with potato-dextrose broth (PDB) using microtitre plates.
(§2) The active compound is applied as the technical active substance dissolved in methanol.
A mycelium suspension of Rhizoctonia solani was used for inoculation. After 3 days (combinations A1+B3, A3+B2), 7 days (combination A2+B1), 4 days (combination A4+B2) or 5 days (combination A5+B1) of incubation by darkness under shaking (10 Hrz), the optical density in each cavity was evaluated with the aid of a microtitre plate reader.
0% means an efficacy which corresponds to that of the control, while an efficacy of 100% means that no fungal growth is observed.

The test system of a further assay is Ustilago avenae. Briefly: In vitro microtest of Ustilago avenae. To be noted: 1 ppm; 5 days incubation. How it is done:
V.12. In vitro Microtest of Ustilago avenae
as §1, §2
A spore suspension of Ustilago avenae was used for inoculation. After 5 days of incubation by darkness under shaking (10 Hrz), the optical density in each cavity was evaluated with the aid of a microtitre plate reader. 0% means an efficacy which corresponds to that of the control, while an efficacy of 100% means that no fungal growth is observed.

The next assay relates to Coriolus versicolor. Kind of assay: In vitro microtest of Coriolus versicolor. To be noted: 3 days incubation. How it is done: V.5. In vitro Microtest of Coriolus versicolor
as §1, §2
A mycelium suspension of Coriolus versicolor was used for inoculation. After 3 days of incubation by darkness under shaking (10 Hrz), the optical density in each cavity was evaluated with the aid of a microtitre plate reader. 0% means an efficacy which corresponds to that of the control, while an efficacy of 100% means that no fungal growth is observed.

The test system of a further assay is Septoria tritici. Kind of assay: In vitro microtest of Septoria tritici. To be noted: 3 days incubation. How it is done:
V.8. In vitro microtest of Septoria tritici
The microtest was performed in liquid medium with potato-dextrose broth (PDB) using microlitre plates.
The active compound is applied as the technical active substance dissolved in methanol. A spore suspension of Septoria tritici was used for inoculation. After 3 days of incubation by darkness under shaking (10 Hrz), the optical density in each cavity was evaluated with the aid of a microtitre plate reader. 0% means an efficacy which corresponds to that of the control, while an efficacy of 100% means that no fungal growth is observed.

A further assay has as its system Penicillium brevicaule. Briefly: In vitro microtest of Penicillium brevicaule (optical density in PDB, microtitre plates). To be noted: 7 days incubation.
The test system of a further assay is Botrytis cinerea. Briefly: In vitro microtest of Botrytis cinerea. The procedure: V.9. In vitro microtest of Botrytis cinerea
as §1, §2
A spore suspension of Botrytis cinerea was used for inoculation. After 5 days (combination A2+B1), 4 days (combination A3+B3), or 7 days ( combination A5+B1) of incubation by darkness under shaking (10 Hrz), the optical density in each cavity was evaluated with the aid of a microtitre plate reader. 0% means an efficacy which corresponds to that of the control, while an efficacy of 100% means that no fungal growth is observed.

Another assay deals with Phytophthora cryptogea. Briefly: In vitro microtest of Phytophthora cryptogea. The settings on record: 3 ppm; 4 days incubation. The procedure: V.11. In vitro Microtest of Phytophthora cryptogea
as §1, §2
A mycelium suspension of Phytophthora cryptogea was used for inoculation. After 4 days of incubation by darkness under shaking (10 Hrz), the optical density in each cavity was evaluated with the aid of a microtitre plate reader. 0% means an efficacy which corresponds to that of the control, while an efficacy of 100% means that no fungal growth is observed.

The next assay has as its system Alternaria mali. Kind of assay: In vitro microtest of Alternaria mali. To be noted: 3 ppm; 4 days incubation. The procedure: V.6. In vitro Microtest of Alternaria mali
as §1
The active compound is applied as the technical active substance dissolved in methanol. A spore suspension of Alternaria mali was used for inoculation. After 4 days of incubation by darkness under shaking (10 Hrz), the optical density in each cavity was evaluated with the aid of a microtitre plate reader. 0% means an efficacy which corresponds to that of the control, while an efficacy of 100% means that no fungal growth is observed.

On to `CON=C(C(=O)OC)c1ccccc1CON=C(C)c1cccc(C(F)(F)F)c1` [A4, Trifloxystrobin], for which the Efficacy in % worked out at 88% in the assay on Gibberella zeae (0.1 ppm, 3 days incubation); 75% in the assay with Gibberella zeae (1 ppm, 5 days incubation); 63% with Pyricularia oryzae (0.1 ppm, 3 days incubation); 43% with Rhizoctonia solani (1 ppm, 4 days incubation); 92% in the assay on Ustilago avenae.

For the compound `Cc1nn(C)c(F)c1C(=O)Nc1ccccc1C(C)CC(C)C` (centres unmarked) [A1, N-[2-(1,3-dimethylbutyl)phenyl]-5-fluoro-1,3-dimethyl-1H-pyrazole-4-carboxamide], the Efficacy in % in the assay on Coriolus versicolor (0.01 ppm) is on record as 97%; with Gibberella zeae (1 ppm, 4 days incubation), 39%; in the assay on Septoria tritici (0.01 ppm), 4%; in the assay with Penicillium brevicaule (0.3 ppm) it was 37%; in the assay with Rhizoctonia solani (0.003 ppm, 3 days incubation), 79%.

Take `COCC(=O)N(c1c(C)cccc1C)C(C)C(=O)OC` (centres unmarked) [A5, Metalaxyl]: the Efficacy in % worked out at 4% in the assay with Botrytis cinerea (0.0003 ppm, 7 days incubation) and 80% in the assay with Rhizoctonia solani (0.0003 ppm, 5 days incubation).

With `OC(Cc1ccccc1Cl)(Cn1nc[nH]c1=S)C1(Cl)CC1` (centres unmarked) [A2, Prothioconazole], the Efficacy in % was 40% in the assay with Botrytis cinerea (0.3 ppm, 5 days incubation); 48% in the assay with Coriolus versicolor (0.003 ppm); 19% with Phytophthora cryptogea; 50% in the assay on Rhizoctonia solani (0.1 ppm, 7 days incubation).

For the compound `CC(C)(C)C(O)(CCc1ccc(Cl)cc1)Cn1cncn1` (centres unmarked) [A3, Tebuconazole], the Efficacy in % in the assay with Botrytis cinerea (0.1 ppm, 4 days incubation) came out at 33%; in the assay on Gibberella zeae (0.01 ppm, 3 days incubation) it was 9%; in the assay on Pyricularia oryzae (0.3 ppm, 5 days incubation), 96%; in the assay with Alternaria mali, 97%; with Rhizoctonia solani (3 ppm, 3 days incubation), 47%.

As to `CCCCCC/C=C\CCCOc1cccc(C(=O)N[C@@H]2C(O[C@H]3C(O)C(NC(C)=O)C(O[C@@H]4C(CO)O[C@@H](O[C@H]5C(O)C(NC(C)=O)C(OC6C(CO[C@@H]7OC(C)C(O)[C@H](O)[C@H]7OC)OC(O)[C@@H](NC(C)=O)[C@H]6O)O[C@H]5CO)[C@@H](NC(C)=O)C4O)O[C@H]3CO)OC(CO)[C@@H](O)[C@@H]2O)c1` (some centres unmarked) [B1], the Efficacy in % in the assay with Botrytis cinerea (0.00000003 ppm, 7 days incubation) was found to be 10%; in the assay on Botrytis cinerea (0.00003 ppm, 5 days incubation), 18%; in the assay with Coriolus versicolor (0.000001 ppm) it was 22%; in the assay with Gibberella zeae (0.000001 ppm, 3 days incubation), 4%; in the assay on Gibberella zeae (0.00001 ppm, 3 days incubation), 12%; in the assay with Pyricularia oryzae (0.00001 ppm, 3 days incubation), 2%. For the same compound, the Efficacy in % was 5% in the assay with Pyricularia oryzae (0.00003 ppm, 5 days incubation); 1% with Septoria tritici (0.000001 ppm); 0% in the assay with Penicillium brevicaule (0.00003 ppm); 41% in the assay on Rhizoctonia solani (0.00000003 ppm, 5 days incubation); 9% with Rhizoctonia solani (0.00001 ppm, 7 days incubation).
